Measurements taken from the supplement of paper PMC10307832.

Key:
Test in all cases: relative viability (nuclei count vs DMSO), 5 days (fraction); higher = more cells survive
BX 795 = compound: O=C(NCCCNc1nc(Nc2cccc(NC(=O)N3CCCC3)c2)ncc1I)c1cccs1 [BX 795]
How it was run: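 Lung cancer cell lines received five library-drug doses (not always all listed) spaced by √10, pinned on vehicle-anchored 1536-well plates after an overnight stay at 37 °C. Five days later, with no medium change, nuclei were Hoechst-stained, imaged at 4× and counted with MetaXpress. Viability is treated-well nuclei relative to vehicle-well nuclei, as a median across plates. Passing plates had control CV below 25% and at least one doubling.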

BX 795 + Alpelisib = compound: O=C(NCCCNc1nc(Nc2cccc(NC(=O)N3CCCC3)c2)ncc1I)c1cccs1 [BX 795] + Cc1nc(NC(=O)N2CCC[C@H]2C(N)=O)sc1-c1ccnc(C(C)(C)C(F)(F)F)c1 [Alpelisib] (partner 2 µM)
How it was run: (§1)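 Relative viability equals treated-well nuclei counts divided by vehicle-well nuclei counts. Counts came from 4× images of lung cancer cell lines grown in 1536-well plates for 5 days after pin-tool dosing on the day after seeding. Dosing used one drug alone or a fixed anchor-drug dose plus five library-drug doses (not always all listed) in √10 steps, and values are medians of duplicate plates.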

BX 795 + Pictilisib = compound: O=C(NCCCNc1nc(Nc2cccc(NC(=O)N3CCCC3)c2)ncc1I)c1cccs1 [BX 795] + CS(=O)(=O)N1CCN(Cc2cc3nc(-c4cccc5[nH]ncc45)nc(N4CCOCC4)c3s2)CC1 [Pictilisib] (partner 1 µM)
How it was run: as §1

BX 795 + Lapatinib = compound: O=C(NCCCNc1nc(Nc2cccc(NC(=O)N3CCCC3)c2)ncc1I)c1cccs1 [BX 795] + CS(=O)(=O)CCNCc1ccc(-c2ccc3ncnc(Nc4ccc(OCc5cccc(F)c5)c(Cl)c4)c3c2)o1 [Lapatinib] (partner 2 µM)
How it was run: as §1

BX 795 + Bortezomib = compound: O=C(NCCCNc1nc(Nc2cccc(NC(=O)N3CCCC3)c2)ncc1I)c1cccs1 [BX 795] + CC(C)C[C@H](NC(=O)[C@H](Cc1ccccc1)NC(=O)c1cnccn1)B(O)O [Bortezomib] (partner 0.002 µM)
How it was run: as §1

BX 795 + Navitoclax = compound: O=C(NCCCNc1nc(Nc2cccc(NC(=O)N3CCCC3)c2)ncc1I)c1cccs1 [BX 795] + CC1(C)CCC(c2ccc(Cl)cc2)=C(CN2CCN(c3ccc(C(=O)NS(=O)(=O)c4ccc(N[C@H](CCN5CCOCC5)CSc5ccccc5)c(S(=O)(=O)C(F)(F)F)c4)cc3)CC2)C1 [Navitoclax] (partner 0.5 µM)
How it was run: as §1

BX 795 + Linsitinib = compound: O=C(NCCCNc1nc(Nc2cccc(NC(=O)N3CCCC3)c2)ncc1I)c1cccs1 [BX 795] + C[C@]1(O)C[C@@H](c2nc(-c3ccc4ccc(-c5ccccc5)nc4c3)c3c(N)nccn32)C1 [Linsitinib] (partner 1 µM)
How it was run: as §1

BX 795 + Crizotinib = compound: O=C(NCCCNc1nc(Nc2cccc(NC(=O)N3CCCC3)c2)ncc1I)c1cccs1 [BX 795] + C[C@@H](Oc1cc(-c2cnn(C3CCNCC3)c2)cnc1N)c1c(Cl)ccc(F)c1Cl [Crizotinib] (partner 1 µM)
How it was run: as §1

BX 795 + Foretinib = compound: O=C(NCCCNc1nc(Nc2cccc(NC(=O)N3CCCC3)c2)ncc1I)c1cccs1 [BX 795] + COc1cc2c(Oc3ccc(NC(=O)C4(C(=O)Nc5ccc(F)cc5)CC4)cc3F)ccnc2cc1OCCCN1CCOCC1 [Foretinib] (partner 0.25 µM)
How it was run: as §1

BX 795 + Olaparib = compound: O=C(NCCCNc1nc(Nc2cccc(NC(=O)N3CCCC3)c2)ncc1I)c1cccs1 [BX 795] + O=C(c1cc(Cc2n[nH]c(=O)c3ccccc23)ccc1F)N1CCN(C(=O)C2CC2)CC1 [Olaparib] (partner 8 µM)
How it was run: as §1

Row | Cell Line | relative viability (BX 795; 0.04 µM) | relative viability (BX 795; 0.1265 µM) | relative viability (BX 795; 0.4 µM) | relative viability (BX 795; 1.265 µM) | relative viability (BX 795 + Alpelisib; first compound 0.04 µM) | relative viability (BX 795 + Alpelisib; first compound 0.1265 µM) | relative viability (BX 795 + Alpelisib; first compound 0.4 µM) | relative viability (BX 795 + Alpelisib; first compound 1.265 µM) | relative viability (BX 795 + Pictilisib; first compound 0.04 µM) | relative viability (BX 795 + Pictilisib; first compound 0.1265 µM) | relative viability (BX 795 + Pictilisib; first compound 0.4 µM) | relative viability (BX 795 + Pictilisib; first compound 1.265 µM) | relative viability (BX 795 + Lapatinib; first compound 0.04 µM) | relative viability (BX 795 + Lapatinib; first compound 0.1265 µM) | relative viability (BX 795 + Lapatinib; first compound 0.4 µM) | relative viability (BX 795 + Lapatinib; first compound 1.265 µM) | relative viability (BX 795 + Bortezomib; first compound 0.04 µM) | relative viability (BX 795 + Bortezomib; first compound 0.1265 µM) | relative viability (BX 795 + Bortezomib; first compound 0.4 µM) | relative viability (BX 795 + Bortezomib; first compound 1.265 µM) | relative viability (BX 795 + Navitoclax; first compound 0.04 µM) | relative viability (BX 795 + Navitoclax; first compound 0.1265 µM) | relative viability (BX 795 + Navitoclax; first compound 0.4 µM) | relative viability (BX 795 + Navitoclax; first compound 1.265 µM) | relative viability (BX 795 + Linsitinib; first compound 0.04 µM) | relative viability (BX 795 + Linsitinib; first compound 0.1265 µM) | relative viability (BX 795 + Linsitinib; first compound 0.4 µM) | relative viability (BX 795 + Linsitinib; first compound 1.265 µM) | relative viability (BX 795 + Crizotinib; first compound 0.04 µM) | relative viability (BX 795 + Crizotinib; first compound 0.1265 µM) | relative viability (BX 795 + Crizotinib; first compound 0.4 µM) | relative viability (BX 795 + Crizotinib; first compound 1.265 µM) | relative viability (BX 795 + Foretinib; first compound 0.04 µM) | relative viability (BX 795 + Foretinib; first compound 0.1265 µM) | relative viability (BX 795 + Foretinib; first compound 0.4 µM) | relative viability (BX 795 + Foretinib; first compound 1.265 µM) | relative viability (BX 795 + Olaparib; first compound 0.04 µM) | relative viability (BX 795 + Olaparib; first compound 0.1265 µM) | relative viability (BX 795 + Olaparib; first compound 0.4 µM) | relative viability (BX 795 + Olaparib; first compound 1.265 µM)
1 | NCI-H1299 | 0.972 | 1.03 | 1.05 | 0.883 | 1.05 | 1.09 | 1.07 | 1 | 0.759 | 0.747 | 0.751 | 0.399 | 0.885 | 0.977 | 1.02 | 0.798 | 1.08 | 1.01 | 1.06 | 0.938 | 1.05 | 0.996 | 1.06 | 0.926 | 0.983 | 0.968 | 0.987 | 0.767 | 1 | 0.933 | 1.01 | 0.674 | 1.13 | 1.09 | 1.16 | 0.876 | 1.02 | 0.985 | 0.918 | 0.637
2 | EBC-1 | 1.02 | 1.01 | 0.931 | 0.543 | 0.874 | 0.763 | 0.628 | 0.34 | 0.419 | 0.351 | 0.262 | 0.157 | 0.217 | 0.189 | 0.231 | 0.188 | 0.571 | 0.458 | 0.551 | 0.269 | 0.508 | 0.438 | 0.401 | 0.222 | 0.957 | 0.864 | 0.85 | 0.439 | 0.199 | 0.186 | 0.184 | 0.172 | 0.104 | 0.0912 | 0.0982 | 0.0866 | 0.794 | 0.707 | 0.765 | 0.355
